Test results taken from US7638512B2, “Phenylaminopropanol derivatives and methods of their use” (Wyeth, priority 2004, dated 2009).
Counter-ions that a name gives are not always drawn.

Each compound was assayed against T1, human hNET (Homo sapiens, UniProt P23975) (assay: Norepinephrine (NE) uptake assay). Conditions: 1 μM test compound; MDCK-Net6 cells stably transfected with human hNET; [3H]NE uptake.
T1 construct: expressed in transfected cells
Format: cell-based
Method: MDCK-Net6 cells, stably transfected with human hNET (Pacholczyk, T., R. D. Blakely, and S. G. Amara, Nature, 1991, 350(6316): p. 350-4) were cultured in growth medium containing high glucose DMEM (Gibco, Cat. No. 11995), 10% FBS (dialyzed, heat-inactivated, US Bio-Technologies, Lot FBD1129HI) and 500 µg/ml G418 (Gibco, Cat. No. 10131). Cells were plated at 300,000/T75 flask and cells were split twice weekly. The JAR cell line (human placental choriocarcinoma) was purchased from ATCC (Cat. No. HTB-144). The cells were cultured in growth medium containing RPMI 1640 (Gibco, Cat. No. 72400), 10% FBS (Irvine, Cat. No. 3000), 1% sodium pyruvate (Gibco, Cat. No. 1136) and 0.25% glucose. Cells were plated at 250,000 cells/T75 flask and split twice weekly. For all assays, cells were plated in Wallac 96-well sterile plates (PerkinElmer, Cat. No. 3983498).
On day 1, cells were plated at 3,000 cells/well in growth medium and maintained in a cell incubator (37° C., 5% CO2). On day 2, growth medium was replaced with 200 μl of assay buffer (25 mM HEPES; 120 mM NaCl; 5 mM KCl; 2.5 mM CaCl2; 1.2 mM MgSO4; 2 mg/ml glucose (pH 7.4, 37° C.)) containing 0.2 mg/ml ascorbic acid and 10 μM pargyline. Plates containing cells with 200 μl of assay buffer were equilibrated for 10 minutes at 37° C. prior to addition of compounds. A stock solution of desipramine was prepared in DMSO (10 mM) and delivered to triplicate wells containing cells for a final test concentration of 1 μM. Data from these wells were used to define non-specific NE uptake (minimum NE uptake). Test compounds were prepared in DMSO (10 mM) and diluted in assay buffer according to test range (1 to 10,000 nM). Twenty-five microliters of assay buffer (maximum NE uptake) or test compound were added directly to triplicate wells containing cells in 200 μl of assay buffer. The cells in assay buffer with test compounds were incubated for 20 minutes at 37° C. To initiate the NE uptake, [^3H]NE diluted in assay buffer (120 nM final assay concentration) was delivered in 25 μl aliquots to each well and the plates were incubated for 5 minutes (37° C.). The reaction was terminated by decanting the supernatant from the plate. The plates containing cells were washed twice with 200 μl assay buffer (37° C.) to remove free radioligand. The plates were then inverted, left to dry for 2 minutes, then reinverted and air-dried for an additional 10 minutes. The cells were lysed in 25 μl of 0.25 N NaOH solution (4° C.), placed on a shake table and vigorously shaken for 5 minutes. After cell lysis, 75 μl of scintillation cocktail was added to each well and the plates were sealed with film tape. The plates were returned to the shake table and vigorously shaken for a minimum of 10 minutes to ensure adequate partitioning of organic and aqueous solutions. The plates were counted in a Wallac Microbeta counter (PerkinElmer) to collect the raw cpm data.
For each experiment, a data stream of cpm values collected from the Wallac Microbeta counter was downloaded to a Microsoft Excel statistical application program. Calculations of EC50 values were made using the transformed-both-sides logistic dose response program written by Wyeth Biometrics Department. The statistical program uses mean cpm values from wells representing maximum binding or uptake (assay buffer) and mean cpm values from wells representing minimum binding or uptake ((1 μM desipramine (hNET) or 1 μM paroxetine (hSERT)). Estimation of the EC50 value was completed on a log scale and the line was fit between the maximum and minimum binding or uptake values. All graphic data representation was generated by normalizing each data point to a mean percent based on the maximum and minimum binding or uptake values. The EC50 values reported from multiple experiments were calculated by pooling the raw data from each experiment and analyzing the pooled data as one experiment.

T1 sequence (P23975 whole entry): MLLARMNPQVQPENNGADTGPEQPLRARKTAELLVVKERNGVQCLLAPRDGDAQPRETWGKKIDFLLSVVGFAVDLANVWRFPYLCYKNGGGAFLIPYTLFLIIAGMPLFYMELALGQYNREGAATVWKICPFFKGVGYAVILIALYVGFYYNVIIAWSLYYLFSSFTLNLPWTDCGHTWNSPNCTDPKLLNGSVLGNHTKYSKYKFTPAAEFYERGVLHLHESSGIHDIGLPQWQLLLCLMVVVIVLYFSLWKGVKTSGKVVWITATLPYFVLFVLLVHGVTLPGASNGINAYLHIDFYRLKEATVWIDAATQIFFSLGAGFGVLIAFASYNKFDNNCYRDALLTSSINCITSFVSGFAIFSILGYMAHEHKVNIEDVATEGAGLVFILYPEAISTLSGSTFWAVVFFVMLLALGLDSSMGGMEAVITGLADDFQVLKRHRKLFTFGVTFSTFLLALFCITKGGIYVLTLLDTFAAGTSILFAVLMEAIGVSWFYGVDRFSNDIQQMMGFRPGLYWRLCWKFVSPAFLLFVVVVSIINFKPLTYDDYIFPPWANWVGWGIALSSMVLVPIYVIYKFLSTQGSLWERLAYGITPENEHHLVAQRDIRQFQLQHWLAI

Structure (SMILES)	inhibition at 1 µM
CNC[C@@H](O)[C@H](c1ccccc1)N1CCOc2ccc(C)cc21 (racemic) [Example 12, (1RS,2SR)-3-(methylamino)-1-(6-methyl-2,3-dihydro-4H-1,4-benzoxazin-4-yl)-1-phenylpropan-2-ol hydrochloride]	3.4%
CNC[C@@H](O)[C@H](c1cc(F)cc(F)c1)N1CCOc2ccc(Cl)cc21 [Example 8, (1S,2R)-1-(6-chloro-2,3-dihydro-4H-1,4-benzoxazin-4-yl)-1-(3,5-difluorophenyl)-3-(methylamino)propan-2-ol hydrochloride]	12.5%
CNC[C@H](O)[C@@H](c1ccccc1)N1CCOc2ccc(Cl)cc21 (single isomer, unassigned) [Example 14, hydrochloride]	41.5%
CNC[C@@H](O)[C@H](c1ccccc1)N1CCN(C)c2ccccc21 (racemic) [Example 4, (1SR,2RS)-3-(methylamino)-1-(4-methyl-3,4-dihydroquinoxalin-1(2H)-yl)-1-phenylpropan-2-ol hydrochloride]	46.2%
CNC[C@@H](O)[C@H](c1ccccc1)N1CCN(CC(F)(F)F)c2ccccc21 (racemic) [Example 5, (1SR,2RS)-3-(methylamino)-1-phenyl-1-[4-(2,2,2-trifluoroethyl)-3,4-dihydroquinoxalin-1(2H)-yl]propan-2-ol hydrochloride]	52.9%
CNC[C@@H](O)[C@H](c1cccc(F)c1)N1CCOc2ccc(Cl)cc21 [Example 15, (1S,2R)-1-(6-chloro-2,3-dihydro-4H-1,4-benzoxazin-4-yl)-1-(3-fluorophenyl)-3-(methylamino)propan-2-ol hydrochloride]	41.4%
CNC[C@@H](O)[C@H](c1ccccc1)N1CCOc2ccc(Cl)cc21 (single isomer, unassigned) [Example 13, hydrochloride]	38.6%
CNC[C@@H](O)[C@H](c1cccc(F)c1)N1CC(C)Oc2ccccc21 (stereo partly drawn) [Example 9, (1S,2R)-1-(3-fluorophenyl)-3-(methylamino)-1-(2-methyl-2,3-dihydro-4H-1,4-benzoxazin-4-yl)propan-2-ol hydrochloride]	53.9%
CNC[C@@H](O)[C@H](c1ccccc1)N1CCOc2ccccc21 (racemic) [Example 2, (1RS,2SR)-1-(2,3-dihydro-4H-1,4-benzoxazin-4-yl)-3-(methylamino)-1-phenylpropan-2-ol dihydrochloride]	33.7%
CNC[C@@H](O)[C@H](c1ccccc1)N1CCOc2ccc(Cl)cc21 (racemic) [Example 11, (1RS,2SR)-1-(6-chloro-2,3-dihydro-4H-1,4-benzoxazin-4-yl)-3-(methylamino)-1-phenylpropan-2-ol hydrochloride]	60.6%
CNC[C@@H](O)[C@H](c1cccc(F)c1)N1CC(C)(C)Oc2ccccc21 [Example 16, (1S,2R)-1-(2,2-dimethyl-2,3-dihydro-4H-1,4-benzoxazin-4-yl)-1-(3-fluorophenyl)-3-(methylamino)propan-2-ol hydrochloride]	10%

Now from value to compound:

inhibition at 1 µM	Structure (SMILES)
95%	CNC[C@@H](O)[C@H](c1cccc(F)c1)N1CC(c2ccccc2)Oc2ccccc21 (stereo partly drawn) [Example 19, (1S,2R)-1-(3-fluorophenyl)-3-(methylamino)-1-(2-phenyl-2,3-dihydro-4H-1,4-benzoxazin-4-yl)propan-2-ol hydrochloride]
9.3%	CNC[C@@H](O)[C@H](c1ccccc1)N1CC(C)(C)Oc2ccccc21 [Example 17, (1S,2R)-1-(2,2-dimethyl-2,3-dihydro-4H-1,4-benzoxazin-4-yl)-3-(methylamino)-1-phenylpropan-2-ol hydrochloride]
51.7%	CNC[C@@H](O)[C@H](c1cccc(F)c1)N1C[C@H](c2ccccc2)Oc2ccccc21 (single isomer, unassigned) [Example 21, hydrochloride]
97.2%	CNC[C@@H](O)[C@H](c1cccc(F)c1)N1C[C@@H](c2ccccc2)Oc2ccccc21 (single isomer, unassigned) [Example 20, hydrochloride]
90.4%	CNC[C@@H](O)[C@H](c1cccc(F)c1)N1CCSc2ccccc21 [Example 18, (1S,2R)-1-(2,3-dihydro-4H-1,4-benzothiazin-4-yl)-1-(3-fluorophenyl)-3-(methylamino)propan-2-ol hydrochloride]
